The assay deals with primary rat mixed cortical cells. The assay can be described thus: In vitro myelination assay (MBP positive myelin strands, fold myelin pixels above background). In kind it is cell-based. The note with it: Rattus norvegicus, read-out: Fold myelin pixels above background relative to baseline of no added compound; for fold induction at 1 µM: 1.0 μM compound; for fold induction at 10 µM: 10.0 μM compound. In short, it runs like this:
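Myelination read as total MBP-immunopositive strand pixels per well, imaged at 10× after fixation on day 14 and expressed relative to untreated wells, at 1.0 and 10.0 μM. Cells: dissociated postnatal day 1 rat cortex, cultured two weeks with compound, re-dosed at days 6 and 10.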

`Cc1cc(NC(=O)NC2CCC2)cc(Nc2ncn(-c3ccccc3)n2)c1` [Compound 910, 1-cyclobutyl-3-[3-methyl-5-[(1-phenyl-1,2,4-triazol-3-yl)amino]phenyl]urea]: the fold induction at 1 µM lay within 1 to 10 and the fold induction at 10 µM lay in the range of 10 to 100.
On to `Cc1cc(Nc2ncn(-c3cc(F)cc(F)c3)n2)cc(N2CCCC(N3CCOCC3)C2)c1` (centres unmarked) [Compound 911, 1-(3,5-difluorophenyl)-N-[3-methyl-5-(3-morpholino-1-piperidyl)phenyl]-1,2,4-triazol-3-amine], for which the fold induction at 1 µM lay within 1 to 10 and the fold induction at 10 µM was in the range of 1 to 10.
As for `Cc1cc(Nc2ncn(-c3cc(F)cc(F)c3)n2)cc(NC2CCCC2N2CCOCC2)c1` (centres unmarked) [Compound 912, N3-[1-(3,5-difluorophenyl)-1,2,4-triazol-3-yl]-5-methyl-N1-(2-morpholinocyclopentyl)benzene-1,3-diamine], the fold induction at 1 µM was 1 to 10 and the fold induction at 10 µM fell in the range of 1 to 10.
`Cc1cc(Nc2ncn(-c3cccc(F)c3)n2)c(F)c(OC2CCOC2)c1` (centres unmarked) [Compound 913, N-(2-fluoro-5-methyl-3-tetrahydrofuran-3-yloxy-phenyl)-1-(3-fluorophenyl)-1,2,4-triazol-3-amine]: the fold induction at 1 µM was 10 to 100 and the fold induction at 10 µM was 10 to 100.
As to `Cc1cc(Nc2ncn(-c3cc(F)cc(F)c3)n2)cc(N2CCN(CC3CCCO3)CC2)c1` (centres unmarked) [Compound 914, 1-(3,5-difluorophenyl)-N-[3-methyl-5-[4-(tetrahydrofuran-2-ylmethyl)piperazin-1-yl]phenyl]-1,2,4-triazol-3-amine], the fold induction at 1 µM is 10 to 100 and the fold induction at 10 µM is at most 1.
`Cc1cc(Nc2ncn(-c3cc(F)cc(F)c3)n2)c(F)c(NC2COC2)c1` [Compound 915, N3-[1-(3,5-difluorophenyl)-1,2,4-triazol-3-yl]-2-fluoro-5-methyl-N1-(oxetan-3-yl)benzene-1,3-diamine]: the fold induction at 1 µM lay within 1 to 10 and the fold induction at 10 µM is at most 1.
In the case of `[2H]C1([2H])NC([2H])([2H])C([2H])([2H])N(c2cc(C)cc(Nc3ncn(-c4cc(F)cc(F)c4)n3)c2)C1([2H])[2H]` [Compound 916, 1-(3,5-difluorophenyl)-N-[3-methyl-5-(2,2,3,3,5,5,6,6-octadeuteriopiperazin-1-yl)phenyl]-1,2,4-triazol-3-amine], the fold induction at 1 µM fell in the range of 10 to 100 and the fold induction at 10 µM is at most 1.
Take `CCC1CN(CCNc2cc(C)cc(Nc3ncn(-c4cc(F)cc(F)c4)n3)c2)CCO1` (centres unmarked) [Compound 917, N3-[1-(3,5-difluorophenyl)-1,2,4-triazol-3-yl]-N1-[2-(2-ethylmorpholin-4-yl)ethyl]-5-methyl-benzene-1,3-diamine]: the fold induction at 1 µM lay within 10 to 100 and the fold induction at 10 µM is at most 1.
On to `Cc1cc(Nc2ncn(-c3cc(F)cc(F)c3)n2)cc(NC2CCOC(C3CC3)C2)c1` (centres unmarked) [Compound 918, N1-(2-cyclopropyltetrahydropyran-4-yl)-N3-[1-(3,5-difluorophenyl)-1,2,4-triazol-3-yl]-5-methyl-benzene-1,3-diamine], for which the fold induction at 1 µM is 1 to 10 and the fold induction at 10 µM is at most 1.
With `Cc1cc(Nc2ncn(-c3cc(F)cc(F)c3)n2)cc(N2CC(N3CCOCC3)CC2C)c1` (centres unmarked) [Compound 920, 1-(3,5-difluorophenyl)-N-[3-methyl-5-(2-methyl-4-morpholino-pyrrolidin-1-yl)phenyl]-1,2,4-triazol-3-amine], the fold induction at 1 µM fell in the range of 10 to 100 and the fold induction at 10 µM was at most 1.
For `Cc1cc(Nc2ncn(-c3cc(F)cc(F)c3)n2)cc(N2CC(CC#N)C2)c1` [Compound 921, 2-[1-[3-[[1-(3,5-difluorophenyl)-1,2,4-triazol-3-yl]amino]-5-methyl-phenyl]azetidin-3-yl]acetonitrile], in that order: 10 to 100 and 1 to 10.
Taken in the same sequence, the figures for `[2H]C1([2H])N(CCO)C([2H])([2H])C([2H])([2H])N(c2cc(C)cc(Nc3ncn(-c4cc(F)cc(F)c4)n3)c2)C1([2H])[2H]` [Compound 922, 2-[2,2,3,3,5,5,6,6-octadeuterio-4-[3-[[1-(3,5-difluorophenyl)-1,2,4-triazol-3-yl]amino]-5-methyl-phenyl]piperazin-1-yl]ethanol] were 1 to 10 and at most 1.
On to `CC(=O)OCC(COC(C)=O)N1CCN(c2cc(C)cc(Nc3ncn(-c4cc(F)cc(F)c4)n3)c2F)CC1` [Compound 923, [3-acetoxy-2-[4-[3-[[1-(3,5-difluorophenyl)-1,2,4-triazol-3-yl]amino]-2-fluoro-5-methyl-phenyl]piperazin-1-yl]propyl] acetate], for which the fold induction at 1 µM is 10 to 100 and the fold induction at 10 µM was 1 to 10.
For `Cc1cc(Nc2ncn(-c3cc(F)cc(F)c3)n2)cc(N2CCN(C3CCN(C)CC3)C(C)C2)c1` (centres unmarked) [Compound 925, 1-(3,5-difluorophenyl)-N-[3-methyl-5-[3-methyl-4-(1-methyl-4-piperidyl)piperazin-1-yl]phenyl]-1,2,4-triazol-3-amine], in that order: 1 to 10 and at most 1.
For `[2H]C1([2H])N(c2cc(C)cc(Nc3ncn(-c4cc(F)cc(F)c4)n3)c2)C([2H])([2H])C([2H])([2H])N(C2CCCOC2)C1([2H])[2H]` (centres unmarked) [Compound 926, 1-(3,5-difluorophenyl)-N-[3-methyl-5-(2,2,3,3,5,5,6,6-octadeuterio-4-tetrahydropyran-3-yl-piperazin-1-yl)phenyl]-1,2,4-triazol-3-amine], in that order: 10 to 100 and 1 to 10.
Consider `Cc1cc(Nc2ncn(-c3cc(F)cc(F)c3)n2)cc(N2CCOC(COC(C)C)C2)c1` (centres unmarked) [Compound 927, 1-(3,5-difluorophenyl)-N-[3-[2-(isopropoxymethyl)morpholin-4-yl]-5-methyl-phenyl]-1,2,4-triazol-3-amine], for which the fold induction at 1 µM is 10 to 100 and the fold induction at 10 µM was 1 to 10.
Taken in the same sequence, the figures for `Cc1cc(NCCN2CCOC(C)C2)cc(Nc2ncn(-c3cc(F)cc(F)c3)n2)c1` (centres unmarked) [Compound 928, N1-[1-(3,5-difluorophenyl)-1,2,4-triazol-3-yl]-5-methyl-N3-[2-(2-methylmorpholin-4-yl)ethyl]benzene-1,3-diamine] were 10 to 100 and at most 1.
For `[2H]C(C)(C)N1CCN(c2cc(C)cc(Nc3ncn(-c4ccccc4)n3)c2)CC1` [Compound 929, N-[3-[4-(1-deuterio-1-methyl-ethyl)piperazin-1-yl]-5-methyl-phenyl]-1-phenyl-1,2,4-triazol-3-amine], the fold induction at 1 µM lay in the range of 10 to 100 and the fold induction at 10 µM was at most 1.
For the molecule `COCCN1CCC(Nc2cc(C)cc(Nc3ncn(-c4cc(F)cc(F)c4)n3)c2)CC1` [Compound 930, N3-[1-(3,5-difluorophenyl)-1,2,4-triazol-3-yl]-N1-[1-(2-methoxyethyl)-4-piperidyl]-5-methyl-benzene-1,3-diamine], the fold induction at 1 µM fell in the range of 10 to 100 and the fold induction at 10 µM was at most 1.
In the case of `Cc1cc(Nc2ncn(-c3cc(F)cc(F)c3)n2)cc(NC(C)CN2CCOCC2)c1` (centres unmarked) [Compound 931, N3-[1-(3,5-difluorophenyl)-1,2,4-triazol-3-yl]-5-methyl-N1-(1-methyl-2-morpholino-ethyl)benzene-1,3-diamine], the fold induction at 1 µM was in the range of 10 to 100 and the fold induction at 10 µM was at most 1.
For the molecule `Cc1cc(NCC2COCCO2)cc(Nc2ncn(-c3cc(F)cc(F)c3)n2)c1` (centres unmarked) [Compound 932, N1-[1-(3,5-difluorophenyl)-1,2,4-triazol-3-yl]-N3-(1,4-dioxan-2-ylmethyl)-5-methyl-benzene-1,3-diamine], the fold induction at 1 µM was 1 to 10 and the fold induction at 10 µM is at most 1.
For `Cc1cc(Nc2ncn(-c3cc(F)cc(F)c3)n2)cc(N2CCC(OCCN(C)C)CC2)c1` [Compound 933, 1-(3,5-difluorophenyl)-N-[3-[4-[2-(dimethylamino)ethoxy]-1-piperidyl]-5-methyl-phenyl]-1,2,4-triazol-3-amine], in that order: 1 to 10 and at most 1.
Regarding `COCCN1CC(Nc2cc(C)cc(Nc3ncn(-c4cc(F)cc(F)c4)n3)c2)CC1=O` (centres unmarked) [Compound 934, 4-[3-[[1-(3,5-difluorophenyl)-1,2,4-triazol-3-yl]amino]-5-methyl-anilino]-1-(2-methoxyethyl)pyrrolidin-2-one], the fold induction at 1 µM fell in the range of 10 to 100 and the fold induction at 10 µM was at most 1.
`[2H]C1([2H])N(CC(F)F)C([2H])([2H])C([2H])([2H])N(c2cc(C)cc(Nc3ncn(-c4cc(F)cc(F)c4)n3)c2)C1([2H])[2H]` [Compound 935, 1-(3,5-difluorophenyl)-N-[3-methyl-5-[2,2,3,3,5,5,6,6-octadeuterio-4-(2,2-difluoroethyl)piperazin-1-yl]phenyl]-1,2,4-triazol-3-amine]: the fold induction at 1 µM lay within 10 to 100.
Regarding `Cc1cc(Nc2ncn(-c3cc(F)cc(F)c3)n2)cc(N2CCN(CC3CCOC3)CC2)c1` (centres unmarked) [Compound 936, 1-(3,5-difluorophenyl)-N-[3-methyl-5-[4-(tetrahydrofuran-3-ylmethyl)piperazin-1-yl]phenyl]-1,2,4-triazol-3-amine], the fold induction at 1 µM lay in the range of 10 to 100 and the fold induction at 10 µM was at most 1.
With `COCC1(CNc2cc(C)cc(Nc3ncn(-c4cc(F)cc(F)c4)n3)c2)CC1` [Compound 937, N1-[1-(3,5-difluorophenyl)-1,2,4-triazol-3-yl]-N3-[[1-(methoxymethyl)cyclopropyl]methyl]-5-methyl-benzene-1,3-diamine], the fold induction at 1 µM lay in the range of 1 to 10 and the fold induction at 10 µM is at most 1.
For `Cc1cc(NCC2(C(=O)N(C)C)CCCC2)cc(Nc2ncn(-c3cc(F)cc(F)c3)n2)c1` [Compound 938, 1-[[3-[[1-(3,5-difluorophenyl)-1,2,4-triazol-3-yl]amino]-5-methyl-anilino]methyl]-N,N-dimethyl-cyclopentanecarboxamide], in that order: 1 to 10 and at most 1.

The record behind these values is patent publication US10766869B2, “Triazoles for the treatment of demyelinating dieases” (Vertex Pharmaceuticals Incorporated, priority 2015, dated 2020).
